Active and inactive are the calls of the source. Rule as the data show it, for most assays here: actives have a measured Kd and inactives only a lower limit.
Experiments:
[1] = biological target: T1, Succinate--CoA ligase [ADP-forming] subunit beta, mitochondrial (Homo sapiens, UniProt Q9P2R7)
T1 sequence (Q9P2R7 whole entry): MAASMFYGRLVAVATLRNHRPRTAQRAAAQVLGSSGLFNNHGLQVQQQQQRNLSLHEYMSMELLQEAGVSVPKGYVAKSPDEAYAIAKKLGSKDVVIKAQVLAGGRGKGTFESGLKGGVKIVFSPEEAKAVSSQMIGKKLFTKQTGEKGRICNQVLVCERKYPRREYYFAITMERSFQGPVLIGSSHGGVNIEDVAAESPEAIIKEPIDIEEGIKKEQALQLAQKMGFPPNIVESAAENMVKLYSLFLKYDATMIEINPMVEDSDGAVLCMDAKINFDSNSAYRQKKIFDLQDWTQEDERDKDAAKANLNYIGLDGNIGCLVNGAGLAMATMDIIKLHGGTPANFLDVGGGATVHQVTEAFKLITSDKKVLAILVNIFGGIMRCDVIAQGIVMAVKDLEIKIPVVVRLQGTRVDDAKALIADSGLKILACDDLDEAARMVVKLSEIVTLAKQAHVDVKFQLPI

[2] = biological target: Dual specificity mitogen-activated protein kinase kinase 1 (Homo sapiens, UniProt Q02750)
[3] = biological target: T2, Mitogen-activated protein kinase kinase kinase 6 (Homo sapiens, UniProt O95382)
T2 sequence (O95382 whole entry): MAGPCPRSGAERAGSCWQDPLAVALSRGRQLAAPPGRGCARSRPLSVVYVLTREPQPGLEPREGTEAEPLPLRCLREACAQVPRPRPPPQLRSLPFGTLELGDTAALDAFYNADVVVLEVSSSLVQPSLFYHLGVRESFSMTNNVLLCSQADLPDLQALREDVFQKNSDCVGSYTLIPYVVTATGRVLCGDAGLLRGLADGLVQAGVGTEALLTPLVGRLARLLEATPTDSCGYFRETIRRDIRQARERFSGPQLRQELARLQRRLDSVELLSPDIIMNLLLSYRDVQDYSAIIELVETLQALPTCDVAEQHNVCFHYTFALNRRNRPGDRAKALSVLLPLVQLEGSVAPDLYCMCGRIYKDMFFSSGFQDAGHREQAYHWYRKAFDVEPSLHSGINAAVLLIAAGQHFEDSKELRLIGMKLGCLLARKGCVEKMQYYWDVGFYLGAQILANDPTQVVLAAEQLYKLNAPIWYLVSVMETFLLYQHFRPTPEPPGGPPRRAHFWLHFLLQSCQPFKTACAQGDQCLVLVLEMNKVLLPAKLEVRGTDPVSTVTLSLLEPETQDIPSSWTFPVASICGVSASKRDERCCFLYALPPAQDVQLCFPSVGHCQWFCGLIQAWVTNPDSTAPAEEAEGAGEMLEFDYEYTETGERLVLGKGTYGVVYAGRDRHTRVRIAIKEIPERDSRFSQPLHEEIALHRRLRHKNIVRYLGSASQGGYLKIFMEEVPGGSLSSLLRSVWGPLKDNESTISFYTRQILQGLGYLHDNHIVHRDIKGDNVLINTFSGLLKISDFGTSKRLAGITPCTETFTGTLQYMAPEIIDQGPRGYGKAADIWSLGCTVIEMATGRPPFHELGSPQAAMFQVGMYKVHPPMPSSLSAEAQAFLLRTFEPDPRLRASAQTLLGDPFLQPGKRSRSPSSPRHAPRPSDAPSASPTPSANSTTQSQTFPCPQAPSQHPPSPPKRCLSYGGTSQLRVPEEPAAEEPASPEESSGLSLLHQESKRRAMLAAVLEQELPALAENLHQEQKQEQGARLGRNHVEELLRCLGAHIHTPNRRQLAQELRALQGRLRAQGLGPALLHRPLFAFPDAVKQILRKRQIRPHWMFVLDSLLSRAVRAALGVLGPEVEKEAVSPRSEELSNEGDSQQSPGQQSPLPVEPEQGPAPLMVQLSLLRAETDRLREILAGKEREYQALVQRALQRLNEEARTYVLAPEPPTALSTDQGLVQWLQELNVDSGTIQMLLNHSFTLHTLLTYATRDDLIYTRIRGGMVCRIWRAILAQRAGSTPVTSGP

[4] = biological target: T3, Mitogen-activated protein kinase kinase kinase 2 (Homo sapiens, UniProt Q9Y2U5)
T3 sequence (Q9Y2U5 whole entry): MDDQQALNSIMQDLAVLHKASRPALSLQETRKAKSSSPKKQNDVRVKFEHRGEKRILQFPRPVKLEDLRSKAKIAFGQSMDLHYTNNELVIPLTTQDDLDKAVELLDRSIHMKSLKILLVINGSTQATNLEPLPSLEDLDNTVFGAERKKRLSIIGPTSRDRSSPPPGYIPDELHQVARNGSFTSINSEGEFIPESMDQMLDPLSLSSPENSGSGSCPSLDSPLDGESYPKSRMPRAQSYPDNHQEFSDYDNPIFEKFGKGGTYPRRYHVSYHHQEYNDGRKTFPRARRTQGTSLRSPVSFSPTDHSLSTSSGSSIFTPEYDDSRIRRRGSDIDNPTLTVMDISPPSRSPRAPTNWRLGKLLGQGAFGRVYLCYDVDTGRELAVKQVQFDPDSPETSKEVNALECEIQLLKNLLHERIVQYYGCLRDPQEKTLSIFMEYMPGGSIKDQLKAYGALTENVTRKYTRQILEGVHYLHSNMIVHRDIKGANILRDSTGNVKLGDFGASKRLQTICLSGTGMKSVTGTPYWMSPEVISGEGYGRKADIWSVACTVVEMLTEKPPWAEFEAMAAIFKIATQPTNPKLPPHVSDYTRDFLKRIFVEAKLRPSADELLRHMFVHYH

[5] = biological target: T4, Dual specificity mitogen-activated protein kinase kinase 3 (Homo sapiens, UniProt P46734)
T4 sequence (P46734 whole entry): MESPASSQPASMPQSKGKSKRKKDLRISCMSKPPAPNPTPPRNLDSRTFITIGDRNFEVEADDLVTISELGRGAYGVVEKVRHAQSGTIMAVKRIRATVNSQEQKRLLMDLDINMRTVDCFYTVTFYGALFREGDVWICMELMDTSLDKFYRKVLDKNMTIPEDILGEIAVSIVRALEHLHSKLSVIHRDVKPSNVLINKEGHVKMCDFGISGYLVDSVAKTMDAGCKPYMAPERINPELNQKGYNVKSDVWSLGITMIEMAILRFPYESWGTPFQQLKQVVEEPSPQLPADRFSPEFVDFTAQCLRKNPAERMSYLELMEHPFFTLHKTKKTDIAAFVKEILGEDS

[6] = biological target: Mitotic checkpoint serine/threonine-protein kinase BUB1 (Homo sapiens, UniProt O43683)
[7] = biological target: Glycogen synthase kinase-3 beta (Homo sapiens, UniProt P49841)
[8] = biological target: MAP/microtubule affinity-regulating kinase 3 (Homo sapiens, UniProt P27448)
[9] = biological target: Tyrosine-protein kinase JAK1 (Homo sapiens, UniProt P23458)
Also: in the data inactive means no Kd found up to 30 µM.

Sequence of Tyrosine-protein kinase JAK1 (P23458 whole entry): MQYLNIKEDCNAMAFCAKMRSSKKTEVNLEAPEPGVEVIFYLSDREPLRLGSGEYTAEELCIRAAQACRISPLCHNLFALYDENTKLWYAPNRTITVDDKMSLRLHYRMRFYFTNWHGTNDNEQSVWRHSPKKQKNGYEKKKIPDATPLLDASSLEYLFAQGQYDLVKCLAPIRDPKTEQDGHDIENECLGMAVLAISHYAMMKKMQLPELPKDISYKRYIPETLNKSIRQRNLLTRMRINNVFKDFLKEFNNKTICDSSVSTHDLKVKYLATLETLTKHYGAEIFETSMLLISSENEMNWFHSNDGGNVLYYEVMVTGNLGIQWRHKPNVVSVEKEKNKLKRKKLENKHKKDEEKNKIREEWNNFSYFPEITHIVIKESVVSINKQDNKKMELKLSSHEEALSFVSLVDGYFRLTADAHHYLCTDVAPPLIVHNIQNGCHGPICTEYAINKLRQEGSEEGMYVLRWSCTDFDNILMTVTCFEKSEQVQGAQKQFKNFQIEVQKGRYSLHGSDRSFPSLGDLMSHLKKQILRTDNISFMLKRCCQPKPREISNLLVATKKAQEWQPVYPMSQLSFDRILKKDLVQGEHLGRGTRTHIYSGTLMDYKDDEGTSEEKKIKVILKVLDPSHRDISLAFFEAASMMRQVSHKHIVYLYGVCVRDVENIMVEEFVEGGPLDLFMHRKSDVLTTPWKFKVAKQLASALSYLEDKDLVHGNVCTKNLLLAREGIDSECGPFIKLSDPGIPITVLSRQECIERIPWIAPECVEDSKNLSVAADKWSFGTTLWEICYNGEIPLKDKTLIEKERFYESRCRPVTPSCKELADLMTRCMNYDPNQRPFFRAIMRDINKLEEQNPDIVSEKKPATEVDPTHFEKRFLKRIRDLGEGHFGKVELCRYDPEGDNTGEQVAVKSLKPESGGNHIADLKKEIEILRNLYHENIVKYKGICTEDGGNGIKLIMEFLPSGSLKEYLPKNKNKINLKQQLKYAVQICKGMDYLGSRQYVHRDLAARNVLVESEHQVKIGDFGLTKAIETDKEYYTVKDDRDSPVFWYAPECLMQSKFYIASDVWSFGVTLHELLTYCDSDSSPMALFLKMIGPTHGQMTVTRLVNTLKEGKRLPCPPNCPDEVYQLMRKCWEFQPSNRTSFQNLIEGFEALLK
Sequence of Glycogen synthase kinase-3 beta (P49841 whole entry): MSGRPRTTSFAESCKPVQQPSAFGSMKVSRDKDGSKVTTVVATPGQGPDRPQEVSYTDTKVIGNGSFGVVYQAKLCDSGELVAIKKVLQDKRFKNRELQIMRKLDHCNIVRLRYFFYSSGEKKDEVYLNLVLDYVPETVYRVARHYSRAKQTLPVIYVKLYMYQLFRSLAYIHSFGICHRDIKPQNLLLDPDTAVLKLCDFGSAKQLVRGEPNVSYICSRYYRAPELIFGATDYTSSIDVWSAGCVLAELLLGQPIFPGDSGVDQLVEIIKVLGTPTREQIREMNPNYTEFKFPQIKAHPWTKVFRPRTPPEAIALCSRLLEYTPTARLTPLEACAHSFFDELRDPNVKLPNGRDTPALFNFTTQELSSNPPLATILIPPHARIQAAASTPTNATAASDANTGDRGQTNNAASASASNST
Sequence of Dual specificity mitogen-activated protein kinase kinase 1 (Q02750 whole entry): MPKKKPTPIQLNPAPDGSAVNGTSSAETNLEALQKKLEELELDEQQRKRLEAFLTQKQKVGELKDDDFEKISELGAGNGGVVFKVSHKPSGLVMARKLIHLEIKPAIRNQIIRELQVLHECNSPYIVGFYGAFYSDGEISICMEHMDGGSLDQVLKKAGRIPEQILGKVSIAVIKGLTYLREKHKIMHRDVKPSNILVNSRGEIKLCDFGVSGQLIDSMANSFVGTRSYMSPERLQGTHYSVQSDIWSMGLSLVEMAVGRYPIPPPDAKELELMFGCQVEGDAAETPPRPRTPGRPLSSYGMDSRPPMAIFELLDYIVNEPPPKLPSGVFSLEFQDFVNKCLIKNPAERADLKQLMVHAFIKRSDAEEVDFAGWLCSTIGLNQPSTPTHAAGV
Sequence of MAP/microtubule affinity-regulating kinase 3 (P27448 whole entry): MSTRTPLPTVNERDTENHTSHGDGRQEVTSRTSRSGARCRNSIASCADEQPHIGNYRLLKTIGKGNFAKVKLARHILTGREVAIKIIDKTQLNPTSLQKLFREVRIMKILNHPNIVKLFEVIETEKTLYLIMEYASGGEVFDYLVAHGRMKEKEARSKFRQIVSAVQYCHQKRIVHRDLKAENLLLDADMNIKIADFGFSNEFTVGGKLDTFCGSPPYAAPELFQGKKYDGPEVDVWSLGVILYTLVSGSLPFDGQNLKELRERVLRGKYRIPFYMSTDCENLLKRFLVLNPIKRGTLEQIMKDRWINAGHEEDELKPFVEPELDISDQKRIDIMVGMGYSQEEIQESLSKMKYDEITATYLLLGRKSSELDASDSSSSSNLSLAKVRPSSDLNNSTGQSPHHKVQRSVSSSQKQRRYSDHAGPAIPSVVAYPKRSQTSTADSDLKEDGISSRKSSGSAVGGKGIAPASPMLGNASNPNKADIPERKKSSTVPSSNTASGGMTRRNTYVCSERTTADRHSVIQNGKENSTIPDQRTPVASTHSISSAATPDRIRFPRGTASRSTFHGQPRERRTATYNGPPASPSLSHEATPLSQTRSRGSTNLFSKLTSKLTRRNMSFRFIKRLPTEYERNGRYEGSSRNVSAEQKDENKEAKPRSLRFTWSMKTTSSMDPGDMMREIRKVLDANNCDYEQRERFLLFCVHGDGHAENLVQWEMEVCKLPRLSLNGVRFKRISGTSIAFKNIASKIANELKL
Sequence of Mitotic checkpoint serine/threonine-protein kinase BUB1 (O43683 whole entry): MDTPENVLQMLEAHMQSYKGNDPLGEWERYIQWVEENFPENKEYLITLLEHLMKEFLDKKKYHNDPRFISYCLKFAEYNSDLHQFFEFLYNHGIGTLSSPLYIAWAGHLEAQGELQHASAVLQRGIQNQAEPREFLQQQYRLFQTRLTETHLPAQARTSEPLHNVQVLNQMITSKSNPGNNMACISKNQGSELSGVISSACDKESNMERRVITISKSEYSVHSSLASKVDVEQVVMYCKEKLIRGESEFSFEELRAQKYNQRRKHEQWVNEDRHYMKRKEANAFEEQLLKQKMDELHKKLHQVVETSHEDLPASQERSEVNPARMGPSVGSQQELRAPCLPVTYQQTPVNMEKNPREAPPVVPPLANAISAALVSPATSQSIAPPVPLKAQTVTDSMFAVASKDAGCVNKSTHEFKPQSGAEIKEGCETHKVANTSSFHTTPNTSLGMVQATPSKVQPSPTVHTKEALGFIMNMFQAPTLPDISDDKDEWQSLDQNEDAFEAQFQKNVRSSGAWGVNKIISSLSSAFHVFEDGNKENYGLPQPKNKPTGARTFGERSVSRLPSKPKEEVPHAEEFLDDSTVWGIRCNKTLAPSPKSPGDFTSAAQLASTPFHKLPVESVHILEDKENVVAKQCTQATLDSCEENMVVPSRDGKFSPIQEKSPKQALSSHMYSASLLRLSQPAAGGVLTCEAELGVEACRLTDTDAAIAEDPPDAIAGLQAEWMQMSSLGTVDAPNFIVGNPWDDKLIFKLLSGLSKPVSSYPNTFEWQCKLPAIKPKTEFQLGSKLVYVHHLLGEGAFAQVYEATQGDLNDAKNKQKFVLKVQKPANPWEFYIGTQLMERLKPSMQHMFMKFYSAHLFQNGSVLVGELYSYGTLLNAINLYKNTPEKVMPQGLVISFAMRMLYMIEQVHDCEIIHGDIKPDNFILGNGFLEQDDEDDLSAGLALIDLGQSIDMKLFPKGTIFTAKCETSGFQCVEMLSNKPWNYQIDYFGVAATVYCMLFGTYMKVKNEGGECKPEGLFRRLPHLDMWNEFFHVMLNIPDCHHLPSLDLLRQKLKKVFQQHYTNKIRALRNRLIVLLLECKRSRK

SMILES	Kd [1]	Kd [2]	Kd [3]	Kd [4]	Kd [5]	Kd [6]	Kd [7]	Kd [8]	Kd [9]
Cn1cc(-c2ccc3nnc(C(F)(F)c4ccc5ncccc5c4)n3n2)cn1 [JNJ-38877605]	> 30 µM (inactive)	> 30 µM (inactive)	> 30 µM (inactive)	> 30 µM (inactive)	> 30 µM (inactive)	> 30 µM (inactive)	> 30 µM (inactive)	> 30 µM (inactive)	> 30 µM (inactive)
Cn1ncc(Cl)c1-c1cc(C(=O)N[C@H](CN)Cc2cccc(F)c2)sc1Cl [AFURESERTIB]	> 30 µM (inactive)	> 30 µM (inactive)	> 30 µM (inactive)	> 30 µM (inactive)	> 30 µM (inactive)	> 30 µM (inactive)	> 30 µM (inactive)	> 30 µM (inactive)	> 30 µM (inactive)
CN(C)C(=O)c1cc2cnc(Nc3ccc(N4CCNCC4)cn3)nc2n1C1CCCC1 [RIBOCICLIB]	> 30 µM (inactive)	> 30 µM (inactive)	> 30 µM (inactive)	> 30 µM (inactive)	> 30 µM (inactive)	> 30 µM (inactive)	> 30 µM (inactive)	> 30 µM (inactive)	> 30 µM (inactive)
COc1ccc(-c2ccc3c(N4CCOC[C@@H]4C)nc(N4CCOC[C@@H]4C)nc3n2)cc1CO [AZD-8055]	> 30 µM (inactive)	> 30 µM (inactive)	> 30 µM (inactive)	> 30 µM (inactive)	> 30 µM (inactive)	> 30 µM (inactive)	> 30 µM (inactive)	> 30 µM (inactive)	> 30 µM (inactive)
COc1cc2nccc(Oc3ccc(NC(=O)Nc4cc(C)on4)c(Cl)c3)c2cc1OC [TIVOZANIB]	> 30 µM (inactive)	> 30 µM (inactive)	> 30 µM (inactive)	> 30 µM (inactive)	> 30 µM (inactive)	> 30 µM (inactive)	> 30 µM (inactive)	> 30 µM (inactive)	> 30 µM (inactive)
C[C@@H](Nc1cc(F)cc(F)c1)c1cc(C(=O)N(C)C)cc2c(=O)cc(N3CCOCC3)oc12 [AZD-8186]	> 30 µM (inactive)	> 30 µM (inactive)	> 30 µM (inactive)	> 30 µM (inactive)	> 30 µM (inactive)	> 30 µM (inactive)	> 30 µM (inactive)	> 30 µM (inactive)	> 30 µM (inactive)
CNC(=O)CN1CCC(Oc2cc3c(Nc4cccc(Cl)c4F)ncnc3cc2OC)CC1 [SAPITINIB]	> 30 µM (inactive)	> 30 µM (inactive)	> 30 µM (inactive)	> 30 µM (inactive)	> 30 µM (inactive)	> 30 µM (inactive)	> 30 µM (inactive)	> 30 µM (inactive)	> 30 µM (inactive)
CCCS(=O)(=O)Nc1ccc(F)c(C(=O)c2c[nH]c3ncc(-c4ccc(Cl)cc4)cc23)c1F [VEMURAFENIB]	> 30 µM (inactive)	> 30 µM (inactive)	> 30 µM (inactive)	> 30 µM (inactive)	> 30 µM (inactive)	> 30 µM (inactive)	> 30 µM (inactive)	> 30 µM (inactive)	> 30 µM (inactive)
CNC(=O)c1ccc(C)c(-n2c(C)cc(OCc3ccc(F)cc3F)c(Br)c2=O)c1 [PH-797804]	> 30 µM (inactive)	> 30 µM (inactive)	> 30 µM (inactive)	> 30 µM (inactive)	> 30 µM (inactive)	> 30 µM (inactive)	> 30 µM (inactive)	> 30 µM (inactive)	> 30 µM (inactive)
C[C@@H](c1ccc2nccn2c1)n1nnc2ncc(-c3cnn(C)c3)nc21 [SAVOLITINIB]	> 30 µM (inactive)	> 30 µM (inactive)	> 30 µM (inactive)	> 30 µM (inactive)	> 30 µM (inactive)	–	> 30 µM (inactive)	> 30 µM (inactive)	> 30 µM (inactive)
COc1cc(N2CCC(N3CCN(C)CC3)CC2)ccc1Nc1ncnc(Nc2ccccc2S(=O)(=O)C(C)C)n1 [ASP-3026]	> 30 µM (inactive)	> 30 µM (inactive)	> 30 µM (inactive)	> 30 µM (inactive)	> 30 µM (inactive)	> 30 µM (inactive)	> 30 µM (inactive)	> 30 µM (inactive)	> 30 µM (inactive)
CCn1c(=O)c(-c2cc[nH]n2)cc2c(C)nc(N)nc21 [VOXTALISIB]	> 30 µM (inactive)	> 30 µM (inactive)	> 30 µM (inactive)	> 30 µM (inactive)	> 30 µM (inactive)	> 30 µM (inactive)	> 30 µM (inactive)	> 30 µM (inactive)	> 30 µM (inactive)
COc1cc(OC)c(/C=C/S(=O)(=O)Cc2ccc(OC)c(NCC(=O)O)c2)c(OC)c1 [RIGOSERTIB]	–	> 30 µM (inactive)	> 30 µM (inactive)	> 30 µM (inactive)	> 30 µM (inactive)	> 30 µM (inactive)	> 30 µM (inactive)	> 30 µM (inactive)	> 30 µM (inactive)
COc1cc(CCc2cc(NC(=O)c3ccc(N4C[C@@H](C)N[C@@H](C)C4)cc3)n[nH]2)cc(OC)c1 [AZD-4547]	–	> 30 µM (inactive)	> 30 µM (inactive)	> 30 µM (inactive)	> 30 µM (inactive)	> 30 µM (inactive)	> 30 µM (inactive)	9.02 µM (active)	> 30 µM (inactive)

Reference: ChEMBL document CHEMBL3991601, “The target landscape of clinical kinase drugs” (Science, 2017)
